Assay results as given in PubChem BioAssay (NCI).
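Where inhibition never reached the appropriate level, the endpoint shown equals the highest concentration tested. Otherwise, values were interpolated linearly from a five-concentration, 48-hour dose response in 96-well plates. TGI: concentration producing complete growth inhibition.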

Tests used:
Test in all cases: NCI-60 cell line screen, 48 h
CAKI-1 renal = system: CAKI-1 renal
ACHN renal = system: ACHN renal
HOP-18 NSCLC = system: HOP-18 NSCLC
DMS 114 small cell lung = system: DMS 114 small cell lung
SF-539 CNS = system: SF-539 CNS
UO-31 renal = system: UO-31 renal
HOP-62 NSCLC = system: HOP-62 NSCLC
SK-MEL-2 melanoma = system: SK-MEL-2 melanoma
HOP-92 NSCLC = system: HOP-92 NSCLC
UACC-62 melanoma = system: UACC-62 melanoma
DLD-1 colon = system: DLD-1 colon
RPMI-8226 leukemia = system: RPMI-8226 leukemia
LXFL 529 NSCLC = system: LXFL 529 NSCLC
M14 melanoma = system: M14 melanoma
SK-OV-3 ovarian = system: SK-OV-3 ovarian
EKVX NSCLC = system: EKVX NSCLC
NCI-H23 lung = system: NCI-H23 lung
OVCAR-3 ovarian = system: OVCAR-3 ovarian
UACC-257 melanoma = system: UACC-257 melanoma
HCT-15 colon = system: HCT-15 colon
U251 CNS = system: U251 CNS
SF-295 CNS = system: SF-295 CNS
SN12C renal = system: SN12C renal
XF 498 CNS = system: XF 498 CNS
MALME-3M melanoma = system: MALME-3M melanoma
MOLT-4 leukemia = system: MOLT-4 leukemia
SW-620 colon = system: SW-620 colon
KM20L2 colon = system: KM20L2 colon
OVCAR-5 ovarian = system: OVCAR-5 ovarian
NCI-H522 lung = system: NCI-H522 lung
IGROV1 ovarian = system: IGROV1 ovarian
HT29 colon = system: HT29 colon
COLO 205 colon = system: COLO 205 colon
786-0 renal = system: 786-0 renal
A549 NSCLC = system: A549 NSCLC
SNB-75 CNS = system: SNB-75 CNS
LOX IMVI melanoma = system: LOX IMVI melanoma
HCT-116 colon = system: HCT-116 colon
SK-MEL-5 melanoma = system: SK-MEL-5 melanoma
A498 renal = system: A498 renal
HCC-2998 colon = system: HCC-2998 colon
DMS 273 small cell lung = system: DMS 273 small cell lung
OVCAR-4 ovarian = system: OVCAR-4 ovarian
SNB-19 CNS = system: SNB-19 CNS
OVCAR-8 ovarian = system: OVCAR-8 ovarian
M19-MEL melanoma = system: M19-MEL melanoma
SNB-78 CNS = system: SNB-78 CNS
SK-MEL-28 melanoma = system: SK-MEL-28 melanoma
RXF 393 renal = system: RXF 393 renal
K-562 leukemia = system: K-562 leukemia
NCI-H460 lung = system: NCI-H460 lung
TK-10 renal = system: TK-10 renal
KM12 colon = system: KM12 colon
HL-60(TB) leukemia = system: HL-60(TB) leukemia
NCI-H226 lung = system: NCI-H226 lung
CCRF-CEM leukemia = system: CCRF-CEM leukemia
SF-268 CNS = system: SF-268 CNS

Measured: TGI

NC(=O)C(=Cc1ccc(CP(=O)(O)O)cc1)C(N)=O
> 100 µM: CAKI-1 renal | ACHN renal | HOP-18 NSCLC | DMS 114 small cell lung | SF-539 CNS | UO-31 renal | HOP-62 NSCLC | SK-MEL-2 melanoma | HOP-92 NSCLC | UACC-62 melanoma | DLD-1 colon | RPMI-8226 leukemia | LXFL 529 NSCLC | M14 melanoma | SK-OV-3 ovarian | EKVX NSCLC | NCI-H23 lung | OVCAR-3 ovarian | UACC-257 melanoma | HCT-15 colon | U251 CNS | SF-295 CNS | SN12C renal | XF 498 CNS | MALME-3M melanoma | MOLT-4 leukemia | SW-620 colon | KM20L2 colon | OVCAR-5 ovarian | NCI-H522 lung | IGROV1 ovarian | HT29 colon | COLO 205 colon | 786-0 renal | A549 NSCLC | SNB-75 CNS | LOX IMVI melanoma | HCT-116 colon | SK-MEL-5 melanoma | A498 renal | HCC-2998 colon | DMS 273 small cell lung | OVCAR-4 ovarian | SNB-19 CNS | OVCAR-8 ovarian | M19-MEL melanoma | SNB-78 CNS | SK-MEL-28 melanoma | RXF 393 renal | K-562 leukemia | NCI-H460 lung | TK-10 renal | KM12 colon

CCO/C=C1\N=C(C(Cl)c2ccccc2)OC1=O (stereo unspecified)
> 100 µM: CAKI-1 renal | ACHN renal | DMS 114 small cell lung | SF-539 CNS | UO-31 renal | HOP-62 NSCLC | SK-MEL-2 melanoma | HOP-92 NSCLC | UACC-62 melanoma | DLD-1 colon | RPMI-8226 leukemia | HL-60(TB) leukemia | LXFL 529 NSCLC | M14 melanoma | EKVX NSCLC | NCI-H23 lung | OVCAR-3 ovarian | UACC-257 melanoma | HCT-15 colon | SF-295 CNS | NCI-H226 lung | SN12C renal | XF 498 CNS | MALME-3M melanoma | MOLT-4 leukemia | SW-620 colon | KM20L2 colon | CCRF-CEM leukemia | OVCAR-5 ovarian | NCI-H522 lung | IGROV1 ovarian | HT29 colon | COLO 205 colon | 786-0 renal | A549 NSCLC | SNB-75 CNS | SF-268 CNS | LOX IMVI melanoma | SK-MEL-5 melanoma | A498 renal | HCC-2998 colon | DMS 273 small cell lung | OVCAR-4 ovarian | SNB-19 CNS | OVCAR-8 ovarian | M19-MEL melanoma | SNB-78 CNS | SK-MEL-28 melanoma | RXF 393 renal | K-562 leukemia | NCI-H460 lung | TK-10 renal | KM12 colon
